# According to PubChem BioAssay AID1996:
# Details: buffer; pH 7.4; 200.0 µM
row,Compound,solubility kinetic [µg/mL]
1,Cn1c(SCC(=O)N2CCCC2=O)nc2ccccc21,> 43.4
2,CC(O)CNC(=O)Cc1cc(=O)[nH]c(=O)[nH]1 (stereo not given),> 34.1
3,CCc1ccc(CNC(=O)C2CC(=O)N(C3CCCC3)C2)cc1 (stereo not given),> 47.2
4,O=C(NC(=O)N1CCCCC1)c1ccccc1,31.7
5,CC1CCCC(NC(=O)CCn2c(=S)oc3ccccc32)C1C (stereo not given),2
6,C=CCc1cccc2cc(C(=O)N3CCOCC3)c(=O)oc12,42.8
7,CCN(CC)C1CC(=O)N(c2cccc(Cl)c2)C1=O (stereo not given),> 42.1
8,CSc1nc2nc3c(cc2c(=O)n1-c1ccccc1C)CCCC3,37.9
9,COc1ccccc1/C=C/C(=O)N1CCc2cc(OC)c(OC)cc2C1C (stereo not given),33
10,Cc1ccc(N2CCCC2=O)cc1S(=O)(=O)N1CCOCC1,> 48.7
11,S=C(NCCc1ccccc1)Nc1c(Cl)cccc1Cl,44.3
12,O=S(=O)(NCc1cccnc1)c1ccc(Cl)c2ccccc12,> 49.9
13,O=C1CCCc2c1nc(-c1ccccc1F)n2O,> 36.9
14,O=C(CN1CCCCCC1)NCC1CCCO1.O=C(O)C(=O)O (stereo not given),> 49.6
15,CSc1ncccc1C(=O)OCC(=O)N(C)C,> 38.1
16,COc1ccc(OC)c2c1sc(=NC(=O)C1CCCCC1)n2C,< 0.4
17,O=C(O)c1cc(Oc2ccc(C(F)(F)F)cc2Cl)ccc1[N+](=O)[O-],> 54.2
18,CCOc1ccccc1NC(=S)N1CCCc2ccccc21,10.5
19,O=c1[nH]c2ccc(S(=O)(=O)N3CCN(c4ccc(F)cc4)CC3)cc2o1,5.7
20,O=C(Nc1nc(-c2ccccc2)cs1)c1ccco1,22.3

row,Compound,solubility kinetic [µg/mL]
1,c1ccc(-c2nc(NCc3cccs3)c3ccccc3n2)cc1,0.7
2,Nc1ccc(C(=O)[O-])cc1.[K+],24.1
3,O=C(Cc1cccs1)NCc1ccc(Cl)cc1Cl,13.1
4,Fc1cccc(Cc2noc(CN3CCOCC3)n2)c1,> 41.6
5,O=C(/C=C\c1ccccc1)Nc1ccc(NC(=O)c2ccco2)cc1,< 0.4
6,O=C1COc2ccc(S(=O)(=O)N3CCCC3)cc2N1,> 42.3
7,O=C(NC(=S)NCc1cccnc1)c1ccccc1F,> 43.4
8,O=C(NC(=S)Nc1ccc(F)cc1)C1CCCCC1,1.3
9,O=C1/C(=C/c2cccs2)SC(=S)N1C1CCS(=O)(=O)C1 (stereo not given),< 0.7
10,CC(C)n1cc(C(N)=S)c(=O)n(Cc2ccccc2)c1=O,9.1
11,O=C(NCCCn1ccnc1)/C(=C/c1ccco1)NC(=O)c1cccs1,50.1
12,Cc1cc(C)nc(NC2=NCCN2C(=S)Nc2c(C)cccc2C)n1,17.7
13,Cc1cc(C)c(C(=O)CN2C(=O)NC3(CCCCC3)C2=O)cc1C,2
14,CC1CN(C(C)C(=O)NC(c2ccccc2)c2ccccc2)CC(C)O1 (stereo not given),> 52.9
15,Cc1ccc(N2CC(C(=O)NC3CCC(C)CC3)CC2=O)cc1 (stereo not given),2.5
16,COc1ccc(N(C=O)C(=S)SC)cc1,2.7
17,Cn1c(=O)c2c(nc3n2CC(O)CN3c2ccccc2)n(C)c1=O (stereo not given),> 49.1
18,CC1CC(C)CN(CC(=O)c2c[nH]c3ccccc23)C1 (stereo not given),37.8
19,O=C(NCCCO)c1c(O)c2cccc3c2n(c1=O)CCC3,> 45.3
20,O=C(CC(=O)c1ccccc1)Nc1ccccc1,29.5

row,Compound,solubility kinetic [µg/mL]
1,CCC(C)[C@H](NC(=O)NCc1ccco1)C(=O)OC (stereo not given in full),> 40.2
2,Cc1cccn2c(=O)c(C=O)c(Cl)nc12,> 33.4
3,CCOC(=O)c1cc(C)[nH]c1C,24.7
4,CCSc1ccccc1-c1nc(-c2ccncc2)no1,5.1
5,O=C(Nc1ccccc1)Nc1nc(-c2ccc(F)c(F)c2)cs1,< 0.2
6,CC(C)n1c(CN(C)Cc2ccccc2)nc2c1c(=O)n(C)c(=O)n2C,23.8
7,CCN1CCN(C(=O)C(=O)c2c(C)[nH]c3ccccc23)CC1,36.1
8,CN(C)c1ccc(C(=O)OCC(=O)NC2CCCCCC2)cc1,2.8
9,Cc1ccc2c(c1)N(CC(=O)N1CCCCC1C)C(=O)CO2 (stereo not given),> 45.4
10,O=C(Nc1ccccc1)c1ccc(NC(=O)c2cccs2)cc1,< 0.3
11,O=C(NCCC1=CCCCC1)C1CCN(C(=O)Cc2ccccc2)CC1,> 53.2
12,CCN1CCN(C(=S)NC(=O)c2cccs2)CC1,> 42.5
13,CCc1cccc(OC2OC(CO)C(O)C(O)C2NC(C)=O)c1 (stereo not given),> 48.8
14,CC1CCCN(C(=O)CNS(=O)(=O)c2cccs2)C1 (stereo not given),> 45.4
15,CCN1C(=O)CS/C1=N\S(=O)(=O)c1ccccc1,> 42.7
16,O=S(=O)(NCCc1ccccc1)c1cccs1,34
17,CN(C)/C=C(\C#N)C(=O)Nc1ccc(F)c(Cl)c1,2
18,O=C(Nc1nc(-c2cccs2)c(C(=O)C(F)(F)F)s1)c1ccco1,3.8
19,COc1ccc(Nc2nc3nonc3nc2N2CCCCC2)cc1,5.3
20,CC(O)CNc1nc2c(c(=O)n(Cc3cccc(Cl)c3)c(=O)n2C)n1C (stereo not given),50.5

# Next, values leading:
row,solubility kinetic [µg/mL],Compound
1,> 46.6,O=C(CN1CCCC1)Nc1ccc(OCc2ccccc2)cc1
2,< 0.4,CC(C)(C)c1ccc(Oc2ccc(NC(=O)c3ccco3)cn2)cc1
3,13.5,CC(C)CCNC(=O)COc1ccc(C(=O)c2ccccc2)cc1
4,45,CC(=O)Oc1ccc(C(=O)Nc2cccc(C(=O)NC(C)(C)C)c2)cc1
5,14,O=C(CCc1ccc(S(=O)(=O)N2CCOCC2)cc1)Nc1ccc(F)cc1[N+](=O)[O-]
6,> 53.6,CC(NC(=O)COC(=O)CCC(=O)c1ccc(F)cc1)c1ccccc1 (stereo not given)
7,> 45.7,CCOC(=O)c1ccc(NC(=S)NCc2ccco2)cc1
8,44,COc1ccc(CN(C)CC(=O)Nc2cccc(S(=O)(=O)N3CCCC3)c2)cc1F
9,10,O=C(NCCc1ccccc1)c1cccc(Br)c1
10,> 30.2,[O-][n+]1ccc(OCc2ccccc2)cc1
11,> 49.2,Cc1ccc(NCC(=O)N/N=C/c2cc(O)ccc2[N+](=O)[O-])cc1
12,0.3,CCN(CC)c1nc2ccccc2n(Cc2cccc(OC)c2)c1=O
13,5.3,Cc1ccc(NC(=O)c2ccc3c(c2)NC(=O)CS3)nc1
14,> 44,NC(=O)CSc1nnc(Cc2ccc3c(c2)OCO3)o1
15,29.1,COc1ccc(CNC(=O)COC(=O)c2cccs2)cc1
16,> 47.3,Cc1ccc(C2=NN(CC(=O)NCCC(C)C)C(=O)CC2)cc1
17,29.3,Cc1cccc(NC(=O)c2cc3ccccc3nc2C)c1
18,> 48.7,CN(C)S(=O)(=O)c1cccc(NC(=O)Cc2ccsc2)c1
19,> 53.5,O=C(NCCOc1ccccc1F)C1CC(=O)N(Cc2ccccc2)C1 (stereo not given)
20,9.4,Cc1ccc(OCC(=O)O/N=C(\N)Cc2ccc([N+](=O)[O-])cc2)cc1C

row,solubility kinetic [µg/mL],Compound
1,< 0.3,Cc1cccc(-c2nc3cc([N+](=O)[O-])ccc3o2)c1
2,10.7,O=S(=O)(NCCCc1ccccc1)c1ccc(Br)cc1
3,9.1,COc1ccccc1N1C(=O)C=C(Sc2nc(C)cc(C)n2)C1=O
4,12.5,Cc1cc2ccccn2c1C(=O)c1ccccc1F
5,46.3,CC12CCC(=O)N1C(C(=O)NCCc1ccc(F)cc1)CS2 (stereo not given)
6,34.5,O=C(CCNS(=O)(=O)c1ccccc1F)OCc1ccccc1Cl
7,< 0.4,Cc1ccc(NC(=O)Cn2cc(C(=O)C3CC3)c3ccccc32)c(C)c1
8,7.6,O=[N+]([O-])c1cccc(NC(=S)N2CCc3ccccc32)c1
9,> 50.5,O=C(NCc1ccccc1)C1CCN(C(=O)Cc2ccccc2)CC1
10,> 50.8,Cn1nccc1C(=O)OCC(=O)Nc1ccc(S(N)(=O)=O)cc1
11,> 43.6,Cc1ccccc1CN(C)C(=O)c1ccc2ccccc2n1
12,> 51.8,O=C(NCC(c1ccco1)N1CCOCC1)c1ccc([N+](=O)[O-])cc1 (stereo not given)
13,> 47.2,COc1ccccc1NC(=O)CC(=O)Nc1ccccc1OC
14,40.2,Cl.O=[N+]([O-])c1cccc(CNCc2ccccc2)c1
15,23.4,O=C(CCNC(=O)c1ccco1)Nc1ccc(C(F)(F)F)cc1
16,> 48.2,O=C(Cc1cccc2ccccc12)Nc1ccc(O)cc1C(=O)O
17,> 44,COc1ccccc1CNC(=O)CSc1n[nH]c(N)n1
18,4.3,COc1ccccc1CNC(=O)COC(=O)c1cc(C)oc1C
19,34.1,Cc1ccccc1S(=O)(=O)NC(=NCc1ccc(F)cc1)c1ccccc1
20,8.4,COc1cc(CNC(=O)C2CC2)ccc1OCc1ccccc1

row,solubility kinetic [µg/mL],Compound
1,32,CCN(c1ccccc1)S(=O)(=O)c1ccc(Cl)nc1
2,> 41,CC1(C)Oc2ccc3ccc(=O)oc3c2/C(=N/O)C1=O
3,> 43.4,Cc1ccc(C(=O)NC(C)c2ccc3c(c2)OCO3)s1 (stereo not given)
4,28,CC(=O)Nc1ccc(SCC(=O)c2cc(C)ccc2C)cc1
5,> 44.6,Cc1cccc(-c2noc(CN(C)C(=O)c3ccco3)n2)c1
6,21.8,Cc1ccc(/C=C/C(=O)OCC(=O)NCc2cccs2)o1
7,1.6,COc1ccc(-c2cc(C(=O)NC3CC3)c3ccccc3n2)cc1
8,11.6,O=C1COc2ccc(S(=O)(=O)NCc3ccccc3)cc2N1
9,42.5,COc1ccc(NC(=S)Nc2cccnc2)c(OC)c1
10,0.3,Cc1ccc(NC(=O)c2cnc3ccccc3n2)cc1C
11,2.7,Cc1ccc(S(=O)(=O)n2c(N)nc3ccccc32)cc1
12,24.2,Cc1cc(SCc2ccc([N+](=O)[O-])cc2)nc(=O)[nH]1
13,4.9,Cc1nc(Cl)c(C(=O)Nc2cccc(F)c2)c(C)c1Cl
14,1.6,COc1ccc(CC(=O)Nc2c(C(N)=O)oc3ccccc23)cc1
15,> 49.3,COc1ccccc1NC(=O)C1CCN(C(=O)c2ccco2)CC1
16,16.6,CCOc1ccc(C(=O)CCC(=O)N2CCN(c3ccc(O)cc3)CC2)cc1
17,22.5,O=C(OCc1cc(=O)n2ccsc2n1)c1ccccc1O
18,> 39.6,Cc1cccc(C)c1NC(=O)c1c[nH]c2ccccc12
19,2.2,Cc1cc(C(=O)OCC(=O)NCc2ccccc2Cl)c(C)o1
20,4.8,Cc1noc(C)c1C(=O)OCC(=O)N1CCc2ccccc21
